This is an account of results in patent EP4635966A1, “SYNTHETIC VARIANTS OF THE GANGLIOSIDE NGCGM3 AND USE THEREOF IN CANCER TREATMENT” (Centro de Inmunologia Molecular, priority 2022, dated 2024).

The experiment deals with EL-4 thymoma cells. Description: EL-4 hepatic metastatic spread model (liver weight). It is filed as in vivo, C57BL/6 mice. As to the method:
Syngeneic C57BL/6 mice were inoculated intravenously through the tail vein with 2x10^5 EL-4 thymoma cells. Mice were randomized and distributed into groups of 7-9 animals. Experimental groups received intraperitoneal treatments with 200µg of synthetic and natural variants of NGcGM3 or vehicle (5.6% sucrose solution, 0.75% L-histidine and 0.5% Tween20) on days 1, 5 and 9. Animals were sacrificed 12-13 days after tumor inoculation, livers were removed and weighed to determine the level of hepatic metastatic spread. The liver weight of healthy animals of the same age and batch was used as a control.
Syngeneic C57BL/6 mice were inoculated intravenously through the tail vein with 2x10^5 EL-4 thymoma cells; mice were randomized and distributed into groups of 7-9 animals. Experimental groups received intraperitoneal treatments with 10-30 µg of nanoparticles of NGcGM3 d18:1-C24:1, NGcGM3 d18:1-C18:0 and natural NGcGM3 with OMPC of N. meningitidis on days 1, 5 and 9 or Tris/HCl solution (Placebo). Animals were sacrificed 12-13 days after tumor inoculation. To determine the level of liver metastatic spread, their livers were removed and weighed.
Syngeneic C57BL/6 mice were inoculated intravenously through the tail vein with 2x10^5 EL-4 thymoma cells; mice were randomized and distributed into groups of 7-9 animals. On the day following tumor inoculation, 6x10^5 bmDC, previously cultured for 16 hours with vehicle (DMSO 0.1%), NGcGM3 d18:1-C24:1 ganglioside (10 µg/ml) or NGcGM3 extracted from natural source (10 µg/ml) were administered in a single dose, intravenously. Cells were extensively washed with serum-free RPMI-1640 medium to remove excess of lipids before transfer. Animals were sacrificed 12-13 days after tumor inoculation, livers were collected and the level of hepatic metastatic spread was determined by weigh. Livers from healthy mice of the same age and batch were used as a reference. […] Clearly, the transfer of bmDC pulsed with NGcGM3 d18:1-C24:1, induce a significant reduction of EL-4 liver metastasis, compared to the placebo group, in which empty dendritic cells were transferred. […], the transfer of bmDC incubated with ganglioside extracted from a natural source was ineffective. (equal letters p>0.05, different letters p<0.05, ANOVA and Tukey tests). […]
To maintain the depletion of the populations of interest throughout the duration of the experiment, equal doses of depleting antibodies were administered on days 4 and 11 after tumor inoculation. Animals were sacrificed 12-13 days after tumor inoculation, livers were removed and the level of hepatic metastatic spread was determined by weigh. […]

Take `CCCCCCCCC=CCCCCCCCCCCCCCC(=O)NC(COC1OC(CO)C(OC2OC(CO)C(O)C(OC3(C(=O)O)CC(O)C(NC(=O)CO)C(C(O)C(O)CO)O3)C2O)C(O)C1O)C(O)C=CCCCCCCCCCCCCC` [NGcGM3 d18:1-C24:1, O-[3,5-didesoxy-5-hydroxyacetamido-D-glycero-α-D-galacto-2-nonupyranosyl-(2→3)-O-(β-D-galactopyranosyl)-(1→4)-β-D-glucopyranosyl-(1→1)-(2R,3S,4E)-2-tetracos-15-enamido-4-octadecene-1,3-diol]: for the setting “2x10^5 EL-4 i.v., 200 µg i.p. on days 1, 5 and 9, livers weighed 12-13 days after inoculation, Figure 2”, the “antimetastatic effect (liver weight, hepatic metastatic spread)” value is listed as “statistically significant antimetastatic effect”. Moreover, the “anti-metastatic effect (liver weight), NK and NKT cell populations not affected” value (Example 18, 200 µg i.p. on days 1, 5 and 9 + PBS) is “is present”. In addition, the “anti-metastatic effect (liver weight) after depletion of NK and NKT cells” value (Example 18, 200 µg i.p. on days 1, 5 and 9 + anti-NK1.1 Mab, Figure 18a) was “abolishes the aforementioned anti-tumor effect”. In addition, the “anti-metastatic effect (liver weight) after depletion of NK cells only” value (Example 18, 200 µg i.p. on days 1, 5 and 9 + anti-asialoGM1 antibody, Figure 18b) is “the antitumor effect is maintained”.
